From patent US6387268B1 (priority 1998, dated 2002)
Read-outs that look alike come from different tables or passages of the source.

Target: rat α3/β4 nAChR (Rattus norvegicus, UniProt P04757+P12392)
Settings: 60 pM [3H]-EB; for retention volume of [3H]-EB: 9.5 ml without competitor
Method: The cultured cells in which rat α3/β4 subtype of neural nicotinic acetylcholine receptor (nAChR) were expressed by transfected cell line KXα3β4R2 were harvested in 30 ml of Tris-HCl buffer (50 mM, pH 7.4) and homogenized for 20 minutes with a Brinkman Polytron homogenizer. The homogenates were centrifuged at 35,000×g for 10 minutes and the supernatant was discarded. The resulting pellets were suspended in 6 ml of 2% cholate in Tris-HCl buffer (50 mM, pH 7.4) and stirred for two hours in an ice bath. After centrifugation at 35,000×g, the supernatant was collected for the immobilization. IAM packing materials (200 mg) were washed three times by centrifugation with Tris-HCl buffer (50 mM, pH 7.4). The IAM materials were suspended in 4 ml of receptor-detergent solution, stirred for one hour at room temperature and dialyzed against 2×1 L buffer for 24 hours at 4° C. When detergents were depleted from the mixture, the receptors were hydrophobically entrapped in the phospholipid monolayer on the surface of IAM materials. The receptor-IAM materials were washed with buffer by centrifugation at 4000×g.
The NR(α4β2)-IAM packing materials were packed in an HR glass column (Pharmacia Biotech) and connected with an HPLC pump. […] The elution profile was monitored by an on-line radioactivity HPLC detector.
The resulting column was used in the LC study of drug-NR binding using frontal chromatographic techniques with [^3H]-epibatidine (EB) as the marker ligand. A series of [^3H]-EB concentrations ranging from 60 pM to 600 pM were pumped through the (α3/β4)NR-IAM column2 to obtain elution profiles showing front and plateau regions. The concentration of the [^3H]-EB in the column eluent was monitored by an LC on-line radioactivity detector.
The binding of the [^3H]-EB on the (α3/β4)NR-IAM column was be altered by the addition of competitive NR-ligands to the mobile phase.

Sequence of rat α3/β4 nAChR (P04757 26-499): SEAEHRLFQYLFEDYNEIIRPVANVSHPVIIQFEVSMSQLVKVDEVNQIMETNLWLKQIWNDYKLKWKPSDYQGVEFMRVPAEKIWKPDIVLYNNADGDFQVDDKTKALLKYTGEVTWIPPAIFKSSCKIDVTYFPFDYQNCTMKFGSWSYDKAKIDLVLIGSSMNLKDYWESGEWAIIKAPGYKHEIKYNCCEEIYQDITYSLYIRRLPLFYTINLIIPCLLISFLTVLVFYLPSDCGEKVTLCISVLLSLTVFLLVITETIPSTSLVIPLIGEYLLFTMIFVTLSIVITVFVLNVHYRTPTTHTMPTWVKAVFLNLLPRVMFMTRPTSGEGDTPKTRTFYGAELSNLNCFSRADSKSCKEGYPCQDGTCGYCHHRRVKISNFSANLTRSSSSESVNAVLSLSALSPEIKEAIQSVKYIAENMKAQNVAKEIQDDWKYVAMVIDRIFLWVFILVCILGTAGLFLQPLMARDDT
Sequence of rat α3/β4 nAChR (P12392 22-495 limits assumed): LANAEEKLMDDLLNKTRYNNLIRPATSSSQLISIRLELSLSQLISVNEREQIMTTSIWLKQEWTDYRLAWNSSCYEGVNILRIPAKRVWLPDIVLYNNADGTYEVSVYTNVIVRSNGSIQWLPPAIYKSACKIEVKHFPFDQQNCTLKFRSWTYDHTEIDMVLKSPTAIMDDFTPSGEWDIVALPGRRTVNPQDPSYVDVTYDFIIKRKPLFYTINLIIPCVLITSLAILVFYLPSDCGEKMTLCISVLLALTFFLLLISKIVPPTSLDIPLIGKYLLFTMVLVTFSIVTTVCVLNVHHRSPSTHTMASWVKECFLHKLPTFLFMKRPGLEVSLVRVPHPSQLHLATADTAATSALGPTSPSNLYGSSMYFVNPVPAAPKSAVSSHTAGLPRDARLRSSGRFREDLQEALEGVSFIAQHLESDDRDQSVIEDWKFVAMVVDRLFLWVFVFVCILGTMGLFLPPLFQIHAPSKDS

Row | Compound | mobile phase concentration required to decrease the retention volume of [3H]-EB from 9.5 ml to 6 ml [pM] | retention volume of [3H]-EB (10 nM A85380 in mobile phase) [mL] | retention volume of [3H]-EB (100 nM A85380 in mobile phase) [mL]
1 | Clc1ccc(C2CC3CCC2N3)cn1 (racemic) [(±)-EB, epibatidine] | 120 | – | –
2 | c1cncc(OC[C@@H]2CCN2)c1 [A85380] | 1.7e+10 | 6.6 | 1.9
3 | C[N+](C)(C)CCOC(N)=O [carbachol] | 1.3e+06 | – | –
4 | CN1CCCC1c1cccnc1 (stereo not drawn) [nicotine] | 45000 | – | –
